Format in all cases: cell-based
Assay [1] concerns DU-145 prostate cancer cells. Description: CellTiter-Glo luminescent cell viability assay, DU-145. The method, then: In example 1, CELLTITER-GLO was used to test etonogestrel against prostate cancer. DU-145 cells were handled as described above, and a DU-145 96-well cell culture plate was obtained. The complete medium for DU-145 cells was RPMI-1640 (a live product), Cat# A1049101, with a cells/well density of 4000. 2. The drug analyte etonogestrel was prepared and administered (200× final concentration): a) DMSO was used to dilute the analyte etonogestrel to 20 mM for use. 79 μL of the 20 mM analyte prepared in step a) was added to the first well in the first row of the dilution plate, and then 54 μL of DMSO solution was added to the second through ninth wells of the first row. 25 μL of solution was aspirated from the first to the second well, and after mixing well 25 μL of solution was aspirated from the second to the third well, and this was repeated until the 9th well in order to ensure that 3.16 dilution of the medication would be carried out one-by-one. b) 95 μl of cell-specific complete medium was added to the working plate, each medication to 9 wells. […] The final concentrations (μM) of the analyte drug in wells 2-10 in FIG. 1 are, in order: 100, 31.64557, 10.01442, 3.16912, 1.002886, 0.317369, 0.100433, 0.031783, 0.010058; a) Before testing, the DU-145 96-well drug screening plate described in 3 above was stabilized to room temperature for 20-30 minutes. c) 100 μl of CellTiter-Glo reagent (prepared as described in 1 above) was added to all drug screening plates and mixed evenly. d) It was thoroughly oscillated in a 96-well microplate oscillator for 2 minutes to allow the cells to undergo full lysis. e) It was stored away from light at room temperature for 15 minutes before carrying out luminescent signal detection to ensure signal stability. f) An EnSpire multi-function plate reader was used at […] to read the luminescent signals. g) Data was processed and analyzed.
A general note: In ATP-based viability assays light output follows the ATP content of the culture.

Assay [2] concerns NCI-H2122 human lung cancer cells. Description: CellTiter-Glo luminescent cell viability assay, NCI-H2122. As to conditions: 72 hours.
Assay [3] relates to NCI-H1703 human lung squamous carcinoma cells. As to the kind of experiment: CellTiter-Glo luminescent cell viability assay, NCI-H1703. As to conditions: 72 hours.

The structures appear in SMILES notation. pEC50, pIC50: −log10 of the molar value. A value given as a limit tells only on which side of the number the result lay.

Turning to `C#C[C@]1(O)CC[C@H]2[C@@H]3CCC4=CC(=O)CC[C@@H]4[C@H]3C(=C)C[C@@]21CC` [etonogestrel], the “inhibitory effect on the proliferation of prostate cancer cells” value in assay [1] (DU-145 compared with NCI-H1703 and NCI-H2122) is on record as “specific inhibitory effect on the proliferation of prostate cancer cells”. For the same compound, the pIC50 in assay [1] (Homo sapiens, DU-145 cells, 72 hours, CellTiter-Glo) is 4.80; in assay [2], no more than 4.00; in assay [3], no more than 4.00. Further, the pEC50 in assay [1] (Homo sapiens, DU-145 cells, FIG. 2 dose-response curve, 72 hours) was 4.93.

One may read the pIC50 as −log10 of the IC50, conventionally taken in molar units. Higher therefore signals a small IC50. One may read the pEC50 as −log10 of the EC50, conventionally taken in molar units. A higher pEC50 goes with a small EC50.

The record behind these values is patent publication US10441591B2, “Applications for etonogestrel in preparing anti-prostate cancer products” (SHANGHAI JIAO TONG UNIVERSITY, priority 2015, dated 2019).
